Results published in patent US3939157A, “3-Benzyl-7-substituted acetamido-3-cephem-4-carboxylic acids and halogenated benzyl derivatives” (Beecham Group Limited, priority 1972, dated 1976).
In brackets after ≈: the same amount, converted by molar mass.

Experiments:
Assay type in all cases: cell-based
[1] = system: B.subtilis; assay: minimum inhibitory concentration (MIC) in agar, B.subtilis; conditions: Bacillus subtilis
Description: (§1) The minimum concentrations of this compound required to inhibit growth of five typical Gram-positive bacteria are tabulated below.
(§2) The minimum inhibitory concentrations (MIC) of the free acid (XIV) required to inhibit the growth of five typical Gram-positive bacteria are tabulated below:
(§3) t-Butyl 3-ethyl-7-(2-thienylacetamido)-3-cephem-4-carboxylate (23 mg) was treated with trifluoracetic acid at room temperature for 1 hour. The excess trifluoroacetic acid was distilled off azeotropically with dry benzene to give the free acid (XVII) as a gum (17 mg) .nu.max (CHCl3) 1770, 1705, 1680 cm^^-1 The minimum inhibitory concentrations of this compound required to inhibit the growth of five typical Gram-positive bacteria are tabulated below:
(§4) The cephem ester (XX) (28 mg) was dissolved in trifluoroacetic acid (0.8 ml) and allowed to stand at room temperature for 30 min.

[2] = system: Strep.pneumoniae CN33; assay: minimum inhibitory concentration (MIC) in agar, Strep.pneumoniae CN33; conditions: Streptococcus pneumoniae
Description: as §1, §2, §3, §4

[3] = system: Staph.aureus Russell; assay: minimum inhibitory concentration (MIC) in agar, Staph.aureus Russell; conditions: Staphylococcus aureus
Description: as §1, §2, §3, §4

[4] = system: β-haemolytic Strep.CN10; assay: minimum inhibitory concentration (MIC) in agar, β-haemolytic Strep.CN10
Description: as §1, §2, §3, §4

[5] = system: Staph.aureus Oxford; assay: minimum inhibitory concentration (MIC) in agar, Staph.aureus Oxford; conditions: Staphylococcus aureus
Description: as §1, §2, §3, §4

Structure (SMILES)	MIC [1] [µg/mL]	MIC [2] [µg/mL]	MIC [3] [µg/mL]	MIC [5] [µg/mL]	MIC [4] [µg/mL]
COC(=O)C1=C(Cc2ccccc2)CS[C@@H]2C(NC(=O)COc3ccccc3)C(=O)N12 (stereo partly shown) [II, Methyl 3-benzyl-7-phenoxyacetamido-3-cephem-4-carboxylate]	1.95 (≈ 4.45 µM)	0.98 (≈ 2.23 µM)	15.6 (≈ 35.6 µM)	0.98 (≈ 2.23 µM)	1.95 (≈ 4.45 µM)
O=C(O)CSCC(=O)NC1C(=O)N2C(C(=O)O)=C(Cc3ccc(F)cc3)CSC12 (stereo not shown) [XIV, 3-p-fluorobenzyl-7-carboxymethylthioacetamido-3-cephem-4-carboxylate]	100 (≈ 227 µM)	25 (≈ 56.8 µM)	50 (≈ 114 µM)	5 (≈ 11.4 µM)	25 (≈ 56.8 µM)
CCC1=C(C(=O)O)N2C(=O)C(NC(=O)Cc3cccs3)[C@H]2SC1 (stereo partly shown) [XVII, 3-ethyl-7-(2-thienylacetamido)-3-cephem-4-carboxylic acid]	2.5 (≈ 7.09 µM)	2.5 (≈ 7.09 µM)	2.5 (≈ 7.09 µM)	2.5 (≈ 7.09 µM)	2.5 (≈ 7.09 µM)
O=C(Cc1cccs1)NC1C(=O)N2C(C(=O)O)=C(CC3CCCCO3)CS[C@H]12 (stereo partly shown) [XXII, 3-(2-tetrahydropyranylmethyl)-7-(2-thienylacetamido)-3-cephem-4-carboxylicacid]	0.5 (≈ 1.18 µM)	0.25 (≈ 0.592 µM)	10 (≈ 23.7 µM)	0.25 (≈ 0.592 µM)	0.25 (≈ 0.592 µM)

Further molecules by falling MIC [1], results first:

MIC [1] [µg/mL]	MIC [2] [µg/mL]	MIC [3] [µg/mL]	MIC [5] [µg/mL]	Structure (SMILES)	MIC [4] [µg/mL]
0.5 (≈ 1.16 µM)	0.25 (≈ 0.578 µM)	10 (≈ 23.1 µM)	0.25 (≈ 0.578 µM)	O=C(Cc1cccs1)NC1C(=O)N2C(C(=O)O)=C(Cc3ccc(F)cc3)CS[C@H]12 (stereo partly shown) [XII, 3-p-fluorobenzyl-7-(2-thienylacetamido)-3-cephem-4-carboxylic acid]	0.25 (≈ 0.578 µM)
0.25 (≈ 0.59 µM)	1 (≈ 2.36 µM)	2.5 (≈ 5.9 µM)	0.1 (≈ 0.236 µM)	N[C@@H](C(=O)NC1C(=O)N2C(C(=O)O)=C(Cc3ccccc3)CS[C@H]12)c1ccccc1 (stereo partly drawn) [VII; R = H, 3-Benzyl-7-[D-α-aminophenylacetamido]-3-cephem-4-carboxylic acid]	0.1 (≈ 0.236 µM)
0.2 (≈ 0.482 µM)	0.2 (≈ 0.482 µM)	10 (≈ 24.1 µM)	0.05 (≈ 0.121 µM)	O=C(Cc1cccs1)NC1C(=O)N2C(C(=O)O)=C(Cc3ccccc3)CSC12 (stereo not shown) [VI]	0.2 (≈ 0.482 µM)
0.05 (≈ 0.117 µM)	0.15 (≈ 0.35 µM)	1.5 (≈ 3.5 µM)	0.05 (≈ 0.117 µM)	O=C(Cc1cccs1)NC1C(=O)N2C(C(=O)O)=C(CCc3ccccc3)CS[C@H]12 (stereo partly drawn) [XXVI, 3-β-phenylethyl-7-(2-thienylacetamido) -3-cephem-4-carboxylic acid]	0.02 (≈ 0.0467 µM)
